# Measurements published in patent US20260021147A1, “COMPOSITIONS AND METHODS FOR TREATING INFLAMMATORY DISEASE” (The Regents of the University of Michigan, priority 2022, published 2026).
# Entries after “also recorded” stand apart in the source; their conditions may differ.
# Key:
# [1] = Pharmacokinetics of meropenem in cecal contents by LC-MS; format: in vivo, C57BL/6 mice; conditions: 10 mg subcutaneous injection; 4, 8, 24, 48 and 96 hours
# Method: C57BL/6 mice were treated with 10 mg of meropenem by subcutaneously injection. Cecal contents were collected prior to, 4, 8, 24, 48, and 96 hours after meropenem injection. To determine the relative abundance of meropenem in mouse cecum samples, extracts were prepared and analyzed with a Thermo Scientific TSQ Quantiva triple quadruple mass spectrometer coupled with a Dionex UltiMate 3000 HPLC system. Approximately 600 mgs of mouse cecal contents were homogenized with a Precellys Tissue Homogenizer. Metabolites were extracted using 100% acetonitrile. The tissue lysates were vortexed, centrifuged at 17,000 g for 5 min 5 at 4° C., and organic layers were transferred to clean tubes, followed by evaporation to dryness under nitrogen. Dried extracts were reconstituted in 50/50 (v/v) water/Acetonitrile, and 5 μL was injected for analysis by LC-MS. The mobile phase A is 100% water and mobile phase B is 0.1% Formic Acid in acetonitrile. Separation of meropenem was achieved on an Agilent SB-C18, 1.8 μm, 100×3 mm column. The flow rate was 250 μL/min at 35° C., and the gradient elution program was: 0-1 min, 5% MPB; 1-5 min, 5-50% MPB; 5-6 min, 50-95% MPB; 6-10 min, 95% MPB; 10-10.1 min, 95-5% MPB. The total run time was 15 min. The mass spectrometer was operated in the MRM positive ion electrospray mode with the transition m/z 384.1->68.0. […]
# colonic mucus layer = assay: Colonic mucus thickness by PAS staining; format: in vivo, mice; conditions: allogeneic mice, day 18
# Text: Pathology scores were quantified by a blinded pathologist. […] Sections were imaged using an Aperio AT2.
# allo-HSCT patients = assay: Retrospective study of 295 allo-HSCT patients: acute GvHD by antibiotic exposure; format: in vivo, human; conditions: until day 100; antibiotic exposure days −10 to 30
# Method: 295 patients with acute myeloid leukemia (AML) or myelodysplastic syndrome (MDS) underwent allogeneic hematopoietic stem cell transplantation (allo-HSCT) with fludarabine plus busulfan as conditioning therapy and tacrolimus and methotrexate as GvHD prophylaxis from 2011 and 2016 at MD Anderson Cancer Center and were analyzed retrospectively. Patients were classified by antibiotic exposures, including those who received neither cefepime nor meropenem, those who received cefepime alone, those who received meropenem alone and those who received both cefepime and meropenem from day −10 to day after allo-HSCT. Acute GvHD was diagnosed by clinical and/or pathological findings, and graded according to standard criteria (Przepiorka et al., 1995).
# [2] = test system: Bacteroides thetaiotaomicron (MDA-JAX BT001); assay: MIC of meropenem with MIC test strips; format: cell-based; conditions: mouse-derived BT
# Method: Mouse-derived BT (MDA-JAX BT001), Enterococcus faecalis (MDA-JAX EF001) and Clostridium disporicum (MDA-JAX CD001), Clostridium saudiense (MDA-JAX CS001), and Lachnospiraceae unclassified (MDA-JAX LS001) were isolated and cultured from mouse stool samples suspended in 1 ml of chilled 20% anaerobic glycerol in a Whitley anaerobic chamber (10% H2, 5% CO2 and 85% N2). Human-derived BT (ATCC 29148) was purchased from ATCC. Bacterial number was quantified using a Nexcelom Cellometer cell counter with SYTO™ BC dye and propidium iodide. For measuring MICs against meropenem, bacteria were cultured on BYE plates including 5% sterilized rumen fluid (Fisher Scientific) with MIC test strips (Liofilchem™ MTS™ Meropenem [MRP] 0.016-256 μg/mL, Fisher Scientific). Bacterial growth experiments were performed in a bacterial liquid media, BYEM10, composed of a hybrid of BHI and M10 supplemented with yeast extract (Table 4). Bacteria were cultured up to 48 hours at a starting concentration of 1×10^6 bacteria/ml in BYEM10 broth (pH 7.2) with and without 5 mg/ml of porcine gastric mucin (M1778, Sigma-Aldrich) with or without 0.5 mg/ml of D-(+)-xylose (X3877), D-(+)-mannose (M8574, Sigma-Aldrich) or D-(+)-glucose (G8270). Optical densities (OD600 nm) of bacterial cultures were measured with a BioTek EPOCH 2 plate reader.
# intestinal microbiota = assay: 16S rRNA sequencing of fecal and mucosal microbiome in mice; format: in vivo
# Method: Fecal samples which were collected from patients and mice and colonic mucosal samples, which were collected from mice were weighed before DNA isolation. […] The quality and quantity of the barcoded amplicons were assessed on an Agilent 4200 TapeStation system (Agilent) and Qubit Fluorometer (Thermo Fisher Scientific), and libraries were prepared after pooling at equimolar ratios. The final libraries were purified using QIAquick gel extraction kit (28706X4, Qiagen) and sequenced with a 2×250 base pair paired-end protocol on the Illumina MiSeq platform.
# For differential abundance analysis, abundances of sequences belonging to taxonomical groups were included for analysis using the Mann-Whitney U test and adjusted for multiple comparisons using the method of Benjamini-Hochberg. Paired samples were analyzed using the Wilcoxon signed rank test with adjustment for multiple comparisons.
smiles,measurement,setting,value
C[C@@H](O)[C@H]1C(=O)N2C(C(=O)O)=C(S[C@@H]3CN[C@H](C(=O)N(C)C)C3)[C@H](C)[C@H]12 [meropenem],meropenem concentrations in the cecal lumen,[1],"increase in meropenem concentrations in the cecum at 4 hours after injection, which rapidly declined afterwards"
same,colonic mucus layer,colonic mucus layer,significantly thinned colonic mucus layer; also recorded: thinning of the colonic mucus layer
same,incidence of acute intestinal GvHD,allo-HSCT patients,increased
same,MIC,[2],4 µg/mL
same,abundances of Bacteroides and several other genera,"intestinal microbiota; allogeneic mice, day 21",significantly higher abundances
same,relative abundance of Clostridia,"intestinal microbiota; meropenem-treated allogeneic mice, from day 7 until 6 days after stopping",depleted; also recorded: significantly decreased
same,compositional differences between luminal and mucosal samples,"intestinal microbiota; treated allogeneic mice, PERMANOVA testing",loss of this distinction
